Test results from patent US20220313620A1, “COMPOSITION FOR PREVENTING AND TREATING TAUOPATHIES” (SERVICIO ANDALUZ DE SALUD, priority 2019, published 2022).

Key:
tau protein = experiment: Hippocampal tau phosphorylation and total tau (western blot) after 10 days of oral drinking; assay type: in vivo, Wistar rats; settings: oral by drinking 100 mg/Kg for 10 days, hippocampus
Protocol: Animal experimental procedures were carried out in accordance with the European Communities directive 2010/63/EU and Spanish legislation (Real Decreto 53/2013). The protocol was approved by the Research and approved by Ethics Committee for Animal Experiments of the University of Malaga, Spain. In accordance with the ARRIVE guidelines, all efforts were made to minimize animal suffering and to reduce the number of animals used per experimental group. Chronic drinking experiments on Wistar rats were performed on 20 male rats. All adult rats, ageing 2 months (≈300 g of body weight), were provided by Charles River Laboratories (Barcelona, Spain). The animals were housed individually under a standard 12 h light-dark cycle in a room with temperature and humidity control. Water and rat chow pellets were provided ad libitum throughout the course of the present study.
Caromax®-D-Pinitol (3-O-methyl-d-chiro-inositol, DPIN, 98% purity) and Caromax®-D-Chiro-inositol (cis-1,2,3-trans-3,5,6-cyclohexanehexol, DCI) were provided by Euronutra SL (Málaga, Spain). They were dissolved in water to orally daily administration by drinking and/or gavage at dose of 100 mg/Kg of body weight (BW) in a 1 ml/kg of BW volume to Zucker and Wistar rats for 4 weeks (28 days) and 10 days, respectively (FIG. 1). During the drinking treatments, the concentration of inositols in the water were updated considering the daily increase of BW of the rats and the possible loss of water by evaporation.
Brain extract. Frozen brain samples (17 mg per sample) were homogenized in 1 mL of cold RIPA lysis buffer (50 mM Tris-HCl pH 7.4, 150 mM NaCl, 0.5% NaDOC, 1 mM EDTA, 1% Triton, 0.1% SDS, 1 mM Na3VO4, 1 mM NaF) supplemented with a protease cocktail (Hoffmann-Roche). The suspension was incubated for 2 hours at 4° C., followed by centrifugation at 12,000 rpm for 15 minutes at 4° C. The supernatant was transferred to a new clean centrifuge tube, and Bradford colorimetric method was used to determine the concentration of the total protein. The protein extracts were diluted 1:1 in loading buffer (DTT 2X) and heated for 5 minutes at 99° C. before being subjected to electrophoresis.
Western Blot Analysis. The tissue protein (10-15 μg) was subjected to electrophoresis on 4-12% Criterion XT Precast Bis-Tris gels (Bio-Rad, USA) for 30 minutes at 80V and 2 h at 150V. […] Bands were quantified by densitometric analysis using ImageJ software (Rasband, WS, ImageJ, US National Institutes of Health, Bethesda, Md., USA). […] The results were expressed as the protein/α-Adaptin ratio or phosphorylated/total protein ratio and normalized to the control group (Y axis represents ‘fold mean of the control values’).
All data are expressed as mean±SEM. […]

Ghrelin = experiment: Plasma ghrelin (ELISA) after acute oral gavage in fasted rats; assay type: in vivo; settings: adult male Wistar rats
Protocol: The protocol was approved by the Ethics Committee for Animal Experiments of the University of Malaga.
D-Pinitol (3-0-methyl-D-chiro-inositol) was generously provided by EURONUTRA SL (https://www.euronutra.com/, Malaga, Spain), in the form of crystalline fine powder (lot: PPN-M0201). For acute treatments, D-Pinitol was dissolved in water to be administered by gavage (orally) at different concentrations (100 mg/Kg and 500 mg/Kg), drug was administered at a volume of 1 ml/kg.
After 18 hours of fasting, D-Pinitol dissolved in water was administered acutely by gavage (100 mg/kg in a first study, and 500 mg/kg in a subsequent study). After administration, the animals were sacrificed in groups at different times (being time 0 the administration of D-Pinitol). For the first study (100 mg/kg), groups of animals were sacrificed at times: 10, 20, 30, 60, 120, 240 and 360 minutes after administration; for the second study (500 mg/kg), animals were sacrificed at times: 60, 120 and 240 minutes after administration. As a control group, a group was administered only with water (by gavage).
Animals were anesthetized with sodium pentobarbital (50 mg/Kg, i.p.), blood, brain and liver samples were collected. Blood was centrifuged (2100 g for 8 min, 4° C.) and the plasma kept for further analysis. Liver and brain samples were flash-frozen in liquid N2, then stored at −80° C. until further analysis.
The plasma levels of insulin and ghrelin were determined with an enzyme-linked immunosorbent assay (ELISA) method using commercial kits: EMD Millipore Corporation (Billerica, Mass., USA) Cat. #EZRMI-13K and Cat. #EZRGRT-91K, respectively. Glucagon levels in plasma was determined with a Glucagon Enzyme Immunoassay (EIA) Kit: Cat. #RAB0202 Sigma-Aldrich (Saint Louis, Mo., USA). All serum samples were assayed in duplicate within one assay, and results were expressed in terms of the particular standard hormone.

Q: How did the “quantity of phospho-tau (AT8: Ser202, Thr205) compared with vehicle group” value (tau protein; FIG. 7A.1) turn out when `COC1[C@@H](O)[C@@H](O)C(O)[C@H](O)[C@H]1O` (stereo partly drawn) [DPIN, (1S,2S,4S,5R)-6-methoxycyclohexane-1,2,3,4,5-pentol] was run?
A: dropped to more than half

Q: And the “relative protein levels of total tau compared with vehicle group” value (tau protein; FIG. 7A.2)?
A: rise

Q: What about the “circulating plasma Ghrelin concentration” value (Ghrelin; oral 100 mg/kg in sterile water, FIG. 2A) of the same compound?
A: increase

Q: What about the “circulating plasma Ghrelin concentration” value (Ghrelin; oral 500 mg/kg, FIG. 3A / FIG. 4) of the same compound?
A: increase
